# Assay: CuAAC macrocyclisation of azide/terminal alkyne linear peptidomimetics to 1,4-triazole (CuI 2 eq, DIPEA 3 eq, Ar-degassed), then Boc removal (TMSCl/MeOH GP4; HCl/dioxane GP5 for A13w, J13w)
# Settings: THF (reflux), 1.2 mM, 66.0 °C, 18.0 h, 2 steps
structure (smiles),measurement,setting,value
COC(=O)[C@@H]1CCCCNC(=O)[C@H](Cc2ccccc2)n2cc(nn2)CNC(=O)NCC[C@H](NC(=O)OC(C)(C)C)C(=O)N1 [Boc-Dab(CONH-propargyl)-Lys(N3-Phe)-OMe],"ring closure, yield over several steps","from C#CCNC(=O)NCC[C@H](NC(=O)OC(C)(C)C)C(=O)N[C@@H](CCCCNC(=O)[C@H](Cc1ccccc1)N=[N+]=[N-])C(=O)OC, 20-membered ring",80%
COC(=O)[C@@H]1CCCn2cc(nn2)CNC(=O)NCC[C@H](NC(=O)OC(C)(C)C)C(=O)N1 [Boc-Dab(CONH-propargyl)-Orn(N3)-OMe],"ring closure, yield over several steps","from C#CCNC(=O)NCC[C@H](NC(=O)OC(C)(C)C)C(=O)N[C@@H](CCCN=[N+]=[N-])C(=O)OC, 16-membered ring",29%
COC(=O)[C@@H]1CNC(=O)[C@H](Cc2ccccc2)n2cc(nn2)CCC(=O)NC[C@H](NC(=O)OC(C)(C)C)C(=O)N1 [Boc-Dap(4-pentynoyl)-Dap(N3-Phe)-OMe],"ring closure, yield over several steps","from C#CCCC(=O)NC[C@H](NC(=O)OC(C)(C)C)C(=O)N[C@@H](CNC(=O)[C@H](Cc1ccccc1)N=[N+]=[N-])C(=O)OC, 16-membered ring",83%
COC(=O)[C@@H]1CCCCn2cc(nn2)CCC(=O)NC[C@H](NC(=O)OC(C)(C)C)C(=O)N1 [Boc-Dap(4-pentynoyl)-Lys(N3)-OMe],"ring closure, yield over several steps","from C#CCCC(=O)NC[C@H](NC(=O)OC(C)(C)C)C(=O)N[C@@H](CCCCN=[N+]=[N-])C(=O)OC, 16-membered ring",59%
COC(=O)[C@@H]1CCCCNC(=O)[C@H](Cc2ccccc2)n2cc(nn2)CCC(=O)NC[C@H](NC(=O)OC(C)(C)C)C(=O)N1 [Boc-Dap(4-pentynoyl)-Lys(N3-Phe)-OMe],"ring closure, yield over several steps","from C#CCCC(=O)NC[C@H](NC(=O)OC(C)(C)C)C(=O)N[C@@H](CCCCNC(=O)[C@H](Cc1ccccc1)N=[N+]=[N-])C(=O)OC, 19-membered ring",99%
COC(=O)[C@@H]1CCCn2cc(nn2)CCC(=O)NC[C@H](NC(=O)OC(C)(C)C)C(=O)N1 [Boc-Dap(4-pentynoyl)-Orn(N3)-OMe],"ring closure, yield over several steps","from C#CCCC(=O)NC[C@H](NC(=O)OC(C)(C)C)C(=O)N[C@@H](CCCN=[N+]=[N-])C(=O)OC, 15-membered ring",53%
COC(=O)[C@@H]1CNC(=O)[C@H](Cc2ccccc2)n2cc(nn2)CCCC(=O)NC[C@H](NC(=O)OC(C)(C)C)C(=O)N1 [Boc-Dap(5-hexynoyl)-Dap(N3-Phe)-OMe],"ring closure, yield over several steps","from C#CCCCC(=O)NC[C@H](NC(=O)OC(C)(C)C)C(=O)N[C@@H](CNC(=O)[C@H](Cc1ccccc1)N=[N+]=[N-])C(=O)OC, 17-membered ring",99%
COC(=O)[C@@H]1CCCCNC(=O)[C@H](Cc2ccccc2)n2cc(nn2)CCCC(=O)NC[C@H](NC(=O)OC(C)(C)C)C(=O)N1 [Boc-Dap(5-hexynoyl)-Lys(N3-Phe)-OMe],"ring closure, yield over several steps","from C#CCCCC(=O)NC[C@H](NC(=O)OC(C)(C)C)C(=O)N[C@@H](CCCCNC(=O)[C@H](Cc1ccccc1)N=[N+]=[N-])C(=O)OC, 20-membered ring",99%
COC(=O)[C@@H]1CCCn2cc(nn2)CCCC(=O)NC[C@H](NC(=O)OC(C)(C)C)C(=O)N1 [Boc-Dap(5-hexynoyl)-Orn(N3)-OMe],"ring closure, yield over several steps","from C#CCCCC(=O)NC[C@H](NC(=O)OC(C)(C)C)C(=O)N[C@@H](CCCN=[N+]=[N-])C(=O)OC, 16-membered ring",52%
COC(=O)[C@@H]1CNC(=O)[C@H](Cc2ccccc2)n2cc(nn2)CNC(=O)NC[C@H](NC(=O)OC(C)(C)C)C(=O)N1 [Boc-Dap(CONH-propargyl)-Dap(N3-Phe)-OMe],"ring closure, yield over several steps","from C#CCNC(=O)NC[C@H](NC(=O)OC(C)(C)C)C(=O)N[C@@H](CNC(=O)[C@H](Cc1ccccc1)N=[N+]=[N-])C(=O)OC, 16-membered ring",99%
COC(=O)[C@@H]1CCCn2cc(nn2)CNC(=O)NC[C@H](NC(=O)OC(C)(C)C)C(=O)N[C@H](C(=O)OC)CCC(=O)N1 [Boc-Dap(CONH-propargyl)-Glu(gamma-Orn(N3)-OMe)-OMe],"ring closure, yield over several steps","from C#CCNC(=O)NC[C@H](NC(=O)OC(C)(C)C)C(=O)N[C@@H](CCC(=O)N[C@@H](CCCN=[N+]=[N-])C(=O)OC)C(=O)OC, 20-membered ring",78%
COC(=O)[C@@H]1CCCCn2cc(nn2)CNC(=O)NC[C@H](NC(=O)OC(C)(C)C)C(=O)N1 [Boc-Dap(CONH-propargyl)-Lys(N3)-OMe],"ring closure, yield over several steps","from C#CCNC(=O)NC[C@H](NC(=O)OC(C)(C)C)C(=O)N[C@@H](CCCCN=[N+]=[N-])C(=O)OC, 16-membered ring",56%
COC(=O)[C@@H]1CCCCNC(=O)[C@H](Cc2ccccc2)n2cc(nn2)CNC(=O)NC[C@H](NC(=O)OC(C)(C)C)C(=O)N1 [Boc-Dap(CONH-propargyl)-Lys(N3-Phe)-OMe],"ring closure, yield over several steps","from C#CCNC(=O)NC[C@H](NC(=O)OC(C)(C)C)C(=O)N[C@@H](CCCCNC(=O)[C@H](Cc1ccccc1)N=[N+]=[N-])C(=O)OC, 19-membered ring",99%
COC(=O)[C@@H]1CNC(=O)[C@H](Cc2ccccc2)n2cc(nn2)CCC(=O)NCCCC[C@H](NC(=O)OC(C)(C)C)C(=O)N1 [Boc-Lys(4-pentynoyl)-Dap(N3-Phe)-OMe],"ring closure, yield over several steps","from C#CCCC(=O)NCCCC[C@H](NC(=O)OC(C)(C)C)C(=O)N[C@@H](CNC(=O)[C@H](Cc1ccccc1)N=[N+]=[N-])C(=O)OC, 19-membered ring",98%
COC(=O)[C@@H]1CCCn2cc(nn2)CCC(=O)NCCCC[C@H](NC(=O)OC(C)(C)C)C(=O)N[C@H](C(=O)OC)CCC(=O)N1 [Boc-Lys(4-pentynoyl)-Glu(gamma-Orn(N3)-OMe)-OMe],"ring closure, yield over several steps","from C#CCCC(=O)NCCCC[C@H](NC(=O)OC(C)(C)C)C(=O)N[C@@H](CCC(=O)N[C@@H](CCCN=[N+]=[N-])C(=O)OC)C(=O)OC, 23-membered ring",86%
COC(=O)[C@@H]1CCCCn2cc(nn2)CCC(=O)NCCCC[C@H](NC(=O)OC(C)(C)C)C(=O)N1 [Boc-Lys(4-pentynoyl)-Lys(N3)-OMe],"ring closure, yield over several steps","from C#CCCC(=O)NCCCC[C@H](NC(=O)OC(C)(C)C)C(=O)N[C@@H](CCCCN=[N+]=[N-])C(=O)OC, 19-membered ring",30%
COC(=O)[C@@H]1CCCn2cc(nn2)CCC(=O)NCCCC[C@H](NC(=O)OC(C)(C)C)C(=O)N1 [Boc-Lys(4-pentynoyl)-Orn(N3)-OMe],"ring closure, yield over several steps","from C#CCCC(=O)NCCCC[C@H](NC(=O)OC(C)(C)C)C(=O)N[C@@H](CCCN=[N+]=[N-])C(=O)OC, 18-membered ring",99%
COC(=O)[C@@H]1CNC(=O)[C@H](Cc2ccccc2)n2cc(nn2)CCCC(=O)NCCCC[C@H](NC(=O)OC(C)(C)C)C(=O)N1 [Boc-Lys(5-hexynoyl)-Dap(N3-Phe)-OMe],"ring closure, yield over several steps","from C#CCCCC(=O)NCCCC[C@H](NC(=O)OC(C)(C)C)C(=O)N[C@@H](CNC(=O)[C@H](Cc1ccccc1)N=[N+]=[N-])C(=O)OC, 20-membered ring",61%
COC(=O)[C@@H]1CCCCn2cc(nn2)CCCC(=O)NCCCC[C@H](NC(=O)OC(C)(C)C)C(=O)N1 [Boc-Lys(5-hexynoyl)-Lys(N3)-OMe],"ring closure, yield over several steps","from C#CCCCC(=O)NCCCC[C@H](NC(=O)OC(C)(C)C)C(=O)N[C@@H](CCCCN=[N+]=[N-])C(=O)OC, 20-membered ring",98%
COC(=O)[C@@H]1CCCCNC(=O)[C@H](Cc2ccccc2)n2cc(nn2)CCCC(=O)NCCCC[C@H](NC(=O)OC(C)(C)C)C(=O)N1 [Boc-Lys(5-hexynoyl)-Lys(N3-Phe)-OMe],"ring closure, yield over several steps","from C#CCCCC(=O)NCCCC[C@H](NC(=O)OC(C)(C)C)C(=O)N[C@@H](CCCCNC(=O)[C@H](Cc1ccccc1)N=[N+]=[N-])C(=O)OC, 23-membered ring",54%
COC(=O)[C@@H]1CCCn2cc(nn2)CCCC(=O)NCCCC[C@H](NC(=O)OC(C)(C)C)C(=O)N1 [Boc-Lys(5-hexynoyl)-Orn(N3)-OMe],"ring closure, yield over several steps","from C#CCCCC(=O)NCCCC[C@H](NC(=O)OC(C)(C)C)C(=O)N[C@@H](CCCN=[N+]=[N-])C(=O)OC, 19-membered ring",40%
COC(=O)[C@@H]1CNC(=O)[C@H](Cc2ccccc2)n2cc(nn2)CNC(=O)NCCCC[C@H](NC(=O)OC(C)(C)C)C(=O)N1 [Boc-Lys(CONH-propargyl)-Dap(N3-Phe)-OMe],"ring closure, yield over several steps","from C#CCNC(=O)NCCCC[C@H](NC(=O)OC(C)(C)C)C(=O)N[C@@H](CNC(=O)[C@H](Cc1ccccc1)N=[N+]=[N-])C(=O)OC, 19-membered ring",70%
COC(=O)[C@@H]1CCCCNC(=O)[C@H](Cc2ccccc2)n2cc(nn2)CNC(=O)NCCCC[C@H](NC(=O)OC(C)(C)C)C(=O)N1 [Boc-Lys(CONH-propargyl)-Lys(N3-Phe)-OMe],"ring closure, yield over several steps","from C#CCNC(=O)NCCCC[C@H](NC(=O)OC(C)(C)C)C(=O)N[C@@H](CCCCNC(=O)[C@H](Cc1ccccc1)N=[N+]=[N-])C(=O)OC, 22-membered ring",99%
COC(=O)[C@@H]1CCCn2cc(nn2)CNC(=O)NCCCC[C@H](NC(=O)OC(C)(C)C)C(=O)N1 [Boc-Lys(CONH-propargyl)-Orn(N3)-OMe],"ring closure, yield over several steps","from C#CCNC(=O)NCCCC[C@H](NC(=O)OC(C)(C)C)C(=O)N[C@@H](CCCN=[N+]=[N-])C(=O)OC, 18-membered ring",93%
